The test system of one data set is cotton seedlings. In words: Pouch assay: main root length of cotton seedlings from treated seeds. In kind it is in vivo. The settings on record: for Root Length (cm): 6 day-old cotton seedlings. The procedure: Seeds of cotton were treated with PESA salt and/or triadimenol (BAYTAN® 30 Flowable Fungicide, Bayer Crop Science, RTP, NC USA). These were assayed in the pouch assay as described above.

For data set [1], the system named is Fusarium solani f. sp. pisi. In words: Seed treatment effect against Fusarium solani f. sp. pisi (Fusarium root rot of pea). In kind it is in vivo, Fusarium solani f. sp. pisi on pea. The settings on record: 16 days. How it is done: Seed treatment effect against Fusarium solani f. sp. pisi (Fusarium root rot of pea)
PESA and metconazole were diluted with DMSO respectively and mixed with each other to obtain the desired material mixture. Then, this suspension was applied to pea seeds. The PESA solution and the metconazole solution were applied to seeds respectively for control, and DMSO for untreated control. The seeds were dried and planted in soil that was inoculated with Fusarium solani f. sp. pisi. After growing at 20-24° C. in a greenhouse, for 16 days, symptoms were investigated and the frequency of disease and % control were calculated. The fungicide interactions in the combinations are calculated according to […] formula: E=X+Y−(X*Y)/100 • X=% action by active ingredient A using P ppm of active ingredient • Y=% action by active ingredient B using Q ppm of active ingredient • E=expected % action by active ingredients A and B using P and Q ppm of active ingredients If the action actually observed (O) is greater than the expected action (E), than the action of the combination is super-additive, i.e. there is a synergistic effect. In mathematical terms, synergism corresponds to a value of more than 100 for the ratio of O/E, said ratio O/E of less than 100 signals a loss of activity compared to the expected activity. Synergy Effect=(Observed/Expected)*100

Counter-ions that a name gives are not always drawn.

Experimental findings from patent publication US8476198B2, “Fungicidal composition” (Valent BioSciences Corporation, priority 2009, dated 2013) are described below.

With `CC(C)(C)C(O)C(Oc1ccc(Cl)cc1)n1cncn1` (stereo not drawn) [Triadimenol, triadimenol, reference compound], the “Root Length (cm)” value in the data set on cotton seedlings (triadimenol 28.2 g ai/100 lbs. of seed, 0 g ai PESA salt) is reported as 12.8 cm; in the data set on cotton seedlings (triadimenol 56.4 g ai/100 lbs. of seed, 0 g ai PESA salt) it was 12.3 cm.

Regarding `CC1(C)CCC(Cc2ccc(Cl)cc2)C1(O)Cn1cncn1` (stereo not drawn) [Metconazole, metconazole, reference compound], the “Observed action (% control)” value is 55 % control in data set [1] (metconazole 0.2 gai/100 kg seed) and 73 % control in data set [1] (metconazole 1 gai/100 kg seed).

Turning to `O=C(O)CCC(=O)NCCc1ccccc1` [PESA, N-(2-phenylethyl)succinamic acid], the “Observed action (% control)” value worked out at 0 % control in data set [1] (PESA 2 gai/100 kg seed, inoculated soil) and 9 % control in data set [1] (PESA 10 gai/100 kg seed, inoculated soil).

Turning to `O=C(O)CCC(=O)NCCc1ccccc1` [PESA salt], the “Root Length (cm)” value in the data set with cotton seedlings (25 g ai PESA salt/100 lbs. of seed, triadimenol 0) is recorded as 14.8 cm; in the data set on cotton seedlings (50 g ai PESA salt/100 lbs. of seed, triadimenol 0) it was 14.3 cm. Moreover, in the data set on cotton seedlings (cotton seed treatment, conclusion in words from Table 2), the “Effect of adding PESA salt on the fungicide's negative effect on cotton root growth” value is reported as “protects or safens cotton from the negative effects of the fungicide on root growth”.
